Measurements taken from paper PMC2804074 (Journal of medicinal chemistry, 2010).

Key:
[1] = tested on: transient global ischemia; settings: gerbils; i.p. doses ≥ 60 mg/kg; cited from earlier work
[2] = tested on: inteleukine-2 (IL-2) release in Jurkat cells; settings: 10 μM compound; cited from earlier work
[3] = molecular target: T1, p38 (Homo sapiens, UniProt Q16539); assay: biochemical
[4] = Microsomal stability, human; type: in vitro ADME; settings: 2 mg/mL human liver microsomes, 1 μM compound
[5] = tested on: c-jun phosphorylation in INS-1 β-pancreatic cells; type: cell-based, rat; settings: for decrease in potency (shift) for c-jun phosphorylation cell-based assay compared to JNK1 biochemical IC50: cell-based versus JNK1 biochemical
[6] = Microsomal stability, mouse; type: in vitro ADME; settings: 2 mg/mL mouse liver microsomes, 1 μM compound
[7] = Microsomal stability, rat; type: in vitro ADME; settings: 2 mg/mL rat liver microsomes, 1 μM compound
[8] = molecular target: JNK3 (Homo sapiens, UniProt P53779)
[9] = molecular target: CYP3A4 (Homo sapiens, UniProt P08684); assay: P450 inhibition, midazolam hydroxylation; type: in vitro ADME; settings: probe midazolam
[10] = molecular target: T2, CYP1A2 (Homo sapiens, UniProt P05177); assay: P450 inhibition, phenaceten demethylation; type: in vitro ADME; settings: probe phenaceten
T2 sequence (P05177 1-516): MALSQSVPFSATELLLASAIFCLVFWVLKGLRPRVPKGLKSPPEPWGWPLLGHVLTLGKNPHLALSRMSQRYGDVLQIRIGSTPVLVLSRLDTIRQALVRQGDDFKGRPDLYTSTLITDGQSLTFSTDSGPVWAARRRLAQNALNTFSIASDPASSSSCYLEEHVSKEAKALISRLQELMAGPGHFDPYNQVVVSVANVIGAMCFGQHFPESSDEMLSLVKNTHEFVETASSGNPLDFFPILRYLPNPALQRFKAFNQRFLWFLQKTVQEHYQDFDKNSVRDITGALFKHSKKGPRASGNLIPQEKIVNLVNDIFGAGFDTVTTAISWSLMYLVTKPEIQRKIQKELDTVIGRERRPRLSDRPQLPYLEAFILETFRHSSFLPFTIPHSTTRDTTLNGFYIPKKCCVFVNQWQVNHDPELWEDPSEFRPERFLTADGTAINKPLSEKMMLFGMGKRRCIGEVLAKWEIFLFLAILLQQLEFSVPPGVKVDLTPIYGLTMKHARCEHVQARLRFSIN

[11] = molecular target: CYP2D6 (Homo sapiens, UniProt P10635); assay: P450 inhibition, bufuralol hydroxylation; type: in vitro ADME; settings: probe bufuralol
[12] = molecular target: CYP2C9 (Homo sapiens, UniProt P11712); assay: P450 inhibition, tolbutamide hydroxylation; type: in vitro ADME; settings: probe tolbutamide
[13] = molecular target: T1, p38; settings: JNK versus p38
[14] = molecular target: JNK1 (Homo sapiens, UniProt P45983); assay: Homogeneous time resolved fluorescence biochemical assay, JNK1
[15] = tested on: MLK1-3; assay: Kinase counterscreen, MLK1-3; type: biochemical; settings: 3 μM
[16] = tested on: panel of 400 kinases; assay: Broad counterscreening against a panel of 400 kinases; type: biochemical; settings: 3 μM; out of 400 kinases
[17] = molecular target: T3, ASK-1 (Homo sapiens, UniProt Q99683); assay: Kinase counterscreen, ASK-1; type: biochemical; settings: 3 μM
T3 sequence (Q99683 1-1374): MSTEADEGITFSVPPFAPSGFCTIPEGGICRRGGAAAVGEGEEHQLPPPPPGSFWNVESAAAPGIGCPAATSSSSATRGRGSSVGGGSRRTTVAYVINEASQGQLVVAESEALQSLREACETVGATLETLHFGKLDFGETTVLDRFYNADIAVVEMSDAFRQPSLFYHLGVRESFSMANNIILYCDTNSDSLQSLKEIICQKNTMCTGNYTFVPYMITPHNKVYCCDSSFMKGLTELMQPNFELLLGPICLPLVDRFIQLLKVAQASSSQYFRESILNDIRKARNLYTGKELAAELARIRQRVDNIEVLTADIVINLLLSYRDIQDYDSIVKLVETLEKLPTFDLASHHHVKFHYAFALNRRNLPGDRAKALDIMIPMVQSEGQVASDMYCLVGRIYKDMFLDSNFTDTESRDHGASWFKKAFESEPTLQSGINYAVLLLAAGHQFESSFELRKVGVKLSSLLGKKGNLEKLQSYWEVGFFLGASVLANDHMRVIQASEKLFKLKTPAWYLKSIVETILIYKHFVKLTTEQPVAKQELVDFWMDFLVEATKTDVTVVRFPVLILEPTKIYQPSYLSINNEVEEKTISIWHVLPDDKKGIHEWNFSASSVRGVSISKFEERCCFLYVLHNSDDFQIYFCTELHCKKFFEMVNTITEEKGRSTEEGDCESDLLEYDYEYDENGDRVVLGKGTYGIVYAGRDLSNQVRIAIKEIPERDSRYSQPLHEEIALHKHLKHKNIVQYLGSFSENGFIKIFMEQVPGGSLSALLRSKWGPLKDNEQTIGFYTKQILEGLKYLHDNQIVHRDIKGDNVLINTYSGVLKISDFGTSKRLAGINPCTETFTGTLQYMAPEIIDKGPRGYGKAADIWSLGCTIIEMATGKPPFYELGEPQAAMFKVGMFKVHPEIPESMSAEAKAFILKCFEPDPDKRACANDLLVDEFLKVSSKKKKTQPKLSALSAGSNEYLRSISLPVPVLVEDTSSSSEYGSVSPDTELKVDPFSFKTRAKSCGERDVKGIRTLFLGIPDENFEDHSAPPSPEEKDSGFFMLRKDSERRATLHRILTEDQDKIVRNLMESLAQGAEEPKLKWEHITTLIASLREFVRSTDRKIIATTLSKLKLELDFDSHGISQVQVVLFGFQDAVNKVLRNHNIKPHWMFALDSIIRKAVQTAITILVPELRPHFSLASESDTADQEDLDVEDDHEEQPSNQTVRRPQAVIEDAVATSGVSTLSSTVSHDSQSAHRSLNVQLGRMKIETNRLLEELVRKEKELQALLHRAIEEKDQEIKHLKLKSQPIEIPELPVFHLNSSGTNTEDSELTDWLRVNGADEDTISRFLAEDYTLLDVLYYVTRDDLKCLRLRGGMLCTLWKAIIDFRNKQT

[18] = molecular target: T4, MKK4 (Homo sapiens, UniProt P45985); assay: Kinase counterscreen, MKK4; type: biochemical; settings: 3 μM
T4 sequence (P45985 1-399): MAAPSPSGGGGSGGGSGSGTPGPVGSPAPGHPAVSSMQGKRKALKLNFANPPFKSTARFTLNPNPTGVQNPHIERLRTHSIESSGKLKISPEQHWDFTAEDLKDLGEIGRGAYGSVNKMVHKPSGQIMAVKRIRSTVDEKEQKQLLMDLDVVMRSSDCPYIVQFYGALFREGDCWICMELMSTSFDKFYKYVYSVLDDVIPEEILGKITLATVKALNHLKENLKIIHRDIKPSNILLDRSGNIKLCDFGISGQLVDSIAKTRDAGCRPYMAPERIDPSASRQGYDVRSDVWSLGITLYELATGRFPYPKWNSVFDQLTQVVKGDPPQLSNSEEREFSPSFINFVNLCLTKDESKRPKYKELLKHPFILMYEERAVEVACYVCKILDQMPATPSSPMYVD

[19] = molecular target: T5, MKK7 (Homo sapiens, UniProt O14733); assay: Kinase counterscreen, MKK7; type: biochemical; settings: 3 μM
T5 sequence (O14733 1-419): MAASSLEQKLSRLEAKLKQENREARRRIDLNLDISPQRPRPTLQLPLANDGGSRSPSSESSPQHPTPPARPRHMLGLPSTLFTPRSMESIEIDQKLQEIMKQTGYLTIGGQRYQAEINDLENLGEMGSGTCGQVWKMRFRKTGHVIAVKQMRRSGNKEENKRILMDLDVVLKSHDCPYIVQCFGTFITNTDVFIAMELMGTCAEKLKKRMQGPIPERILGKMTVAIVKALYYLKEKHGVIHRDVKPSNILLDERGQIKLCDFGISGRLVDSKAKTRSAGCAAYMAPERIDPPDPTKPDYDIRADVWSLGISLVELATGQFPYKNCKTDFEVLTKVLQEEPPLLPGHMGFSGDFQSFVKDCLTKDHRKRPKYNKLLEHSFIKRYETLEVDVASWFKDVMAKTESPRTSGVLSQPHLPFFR

[20] = tested on: MAPK3K1-4; assay: Kinase counterscreen, MAPK3K1-4; type: biochemical; settings: 3 μM

Chain of CYP2D6 (P10635 whole entry): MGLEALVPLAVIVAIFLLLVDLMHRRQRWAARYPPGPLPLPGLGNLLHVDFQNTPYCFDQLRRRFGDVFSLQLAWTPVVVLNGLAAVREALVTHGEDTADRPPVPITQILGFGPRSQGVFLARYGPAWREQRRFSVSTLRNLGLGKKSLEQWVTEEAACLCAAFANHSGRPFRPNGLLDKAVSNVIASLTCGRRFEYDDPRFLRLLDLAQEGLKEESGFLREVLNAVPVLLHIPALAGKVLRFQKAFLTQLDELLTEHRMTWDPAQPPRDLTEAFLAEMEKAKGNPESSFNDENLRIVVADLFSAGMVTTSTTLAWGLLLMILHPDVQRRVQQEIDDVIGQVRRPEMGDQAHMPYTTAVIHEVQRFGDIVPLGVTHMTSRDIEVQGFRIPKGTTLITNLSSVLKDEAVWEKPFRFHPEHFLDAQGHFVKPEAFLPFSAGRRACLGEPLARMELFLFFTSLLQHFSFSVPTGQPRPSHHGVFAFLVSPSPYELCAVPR
Chain of CYP3A4 (P08684 whole entry): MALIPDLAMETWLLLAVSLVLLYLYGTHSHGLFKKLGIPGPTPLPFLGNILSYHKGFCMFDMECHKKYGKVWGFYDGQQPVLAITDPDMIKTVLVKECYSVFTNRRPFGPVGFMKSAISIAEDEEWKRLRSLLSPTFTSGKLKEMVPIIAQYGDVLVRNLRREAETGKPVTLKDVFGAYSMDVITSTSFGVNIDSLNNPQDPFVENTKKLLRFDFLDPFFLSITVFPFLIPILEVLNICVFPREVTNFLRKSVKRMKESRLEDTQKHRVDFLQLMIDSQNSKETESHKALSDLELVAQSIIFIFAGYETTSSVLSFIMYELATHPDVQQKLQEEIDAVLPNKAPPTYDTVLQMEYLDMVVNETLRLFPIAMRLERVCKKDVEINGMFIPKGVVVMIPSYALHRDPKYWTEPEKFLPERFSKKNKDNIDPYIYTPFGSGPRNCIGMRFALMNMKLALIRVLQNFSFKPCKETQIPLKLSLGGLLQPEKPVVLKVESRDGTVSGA
Chain of CYP2C9 (P11712 whole entry): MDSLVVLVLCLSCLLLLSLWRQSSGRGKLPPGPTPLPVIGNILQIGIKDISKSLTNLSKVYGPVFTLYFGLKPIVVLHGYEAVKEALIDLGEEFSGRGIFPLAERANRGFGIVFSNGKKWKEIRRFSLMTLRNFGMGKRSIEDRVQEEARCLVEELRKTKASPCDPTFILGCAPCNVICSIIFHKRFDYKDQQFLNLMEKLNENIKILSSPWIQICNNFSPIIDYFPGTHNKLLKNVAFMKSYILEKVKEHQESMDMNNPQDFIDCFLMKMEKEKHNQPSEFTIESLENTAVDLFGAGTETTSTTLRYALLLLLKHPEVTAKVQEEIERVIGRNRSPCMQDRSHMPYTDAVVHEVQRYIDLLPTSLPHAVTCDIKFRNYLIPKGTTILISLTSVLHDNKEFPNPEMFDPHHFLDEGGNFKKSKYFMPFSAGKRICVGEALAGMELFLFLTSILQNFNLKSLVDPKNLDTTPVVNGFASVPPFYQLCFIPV
T1 sequence (Q16539 whole entry): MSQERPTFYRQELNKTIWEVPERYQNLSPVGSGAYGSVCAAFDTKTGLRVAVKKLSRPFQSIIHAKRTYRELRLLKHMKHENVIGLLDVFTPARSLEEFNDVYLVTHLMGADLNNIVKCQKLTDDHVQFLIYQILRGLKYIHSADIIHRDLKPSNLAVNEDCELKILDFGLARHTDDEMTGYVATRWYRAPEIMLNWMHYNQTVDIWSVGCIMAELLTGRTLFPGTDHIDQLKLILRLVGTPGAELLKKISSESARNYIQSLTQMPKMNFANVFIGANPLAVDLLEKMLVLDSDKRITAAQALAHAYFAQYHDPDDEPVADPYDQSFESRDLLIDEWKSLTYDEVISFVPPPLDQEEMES
Chain of JNK3 (P53779 1-422 isoform P53779-2): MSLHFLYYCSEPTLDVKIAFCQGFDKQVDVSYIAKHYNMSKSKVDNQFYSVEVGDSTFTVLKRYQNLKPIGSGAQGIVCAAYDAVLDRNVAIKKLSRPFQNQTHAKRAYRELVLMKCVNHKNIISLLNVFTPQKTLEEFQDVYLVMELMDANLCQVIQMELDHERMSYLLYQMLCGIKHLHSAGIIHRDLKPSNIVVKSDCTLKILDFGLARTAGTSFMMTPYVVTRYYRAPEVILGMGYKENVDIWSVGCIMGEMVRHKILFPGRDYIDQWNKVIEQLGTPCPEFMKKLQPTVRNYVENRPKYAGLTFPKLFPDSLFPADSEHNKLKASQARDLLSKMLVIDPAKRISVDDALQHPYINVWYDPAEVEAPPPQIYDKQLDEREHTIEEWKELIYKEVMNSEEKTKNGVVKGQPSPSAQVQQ
Chain of JNK1 (P45983 whole entry): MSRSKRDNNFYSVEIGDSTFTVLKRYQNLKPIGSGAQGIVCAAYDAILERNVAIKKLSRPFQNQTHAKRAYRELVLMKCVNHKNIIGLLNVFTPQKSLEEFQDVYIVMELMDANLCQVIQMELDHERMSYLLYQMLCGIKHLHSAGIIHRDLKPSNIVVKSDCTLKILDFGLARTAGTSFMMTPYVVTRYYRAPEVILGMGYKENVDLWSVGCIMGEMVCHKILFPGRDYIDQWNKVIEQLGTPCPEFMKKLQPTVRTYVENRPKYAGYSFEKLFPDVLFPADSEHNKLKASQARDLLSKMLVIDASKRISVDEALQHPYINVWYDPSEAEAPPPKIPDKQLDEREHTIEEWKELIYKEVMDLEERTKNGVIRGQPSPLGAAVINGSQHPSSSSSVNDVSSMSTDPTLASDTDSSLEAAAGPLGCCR

1,3-benzothiazol-2-yl (2-[[2-(3-pyridinyl) ethyl] amino]-4 pyrimidinyl) acetonitrile [AS601245]
efficacy in transient global ischemia models [1]: efficacious | inhibition of IL-2 release in Jurkat cells [2]: 90%

NC(=O)c1ccc(Nc2nccc(-c3ccccc3)n2)cc1 [Compound 9a]
IC50 [3]: > 20 µM

c1cc(-c2ccnc(Nc3ccc(-n4ccnn4)cc3)n2)cc(N2CCOCC2)c1 [Compound 9c]
IC50 [3]: > 20 µM

CS(=O)(=O)Nc1ccc(-c2ccnc(Nc3ccc(S(N)(=O)=O)cc3)n2)cc1 [Compound 9d]
IC50 [3]: > 20 µM

CS(=O)(=O)Nc1ccc(-c2ccnc(Nc3ccc(-n4ccnn4)cc3)n2)cc1 [Compound 9e]
Microsomal Stability (half life), human [4]: poor microsomal stability | decrease in potency (shift) for c-jun phosphorylation cell-based assay compared to JNK1 biochemical IC50 [5]: 13 fold | IC50 [3]: > 20 µM | Microsomal Stability (half life), mouse [6]: poor microsomal stability | Microsomal Stability (half life), rat [7]: poor microsomal stability | fold more potent versus JNK3 than compound 9c ([8]; compared to 9c): 91 fold

Cc1ncn(-c2ccc(Nc3nccc(-c4cccc(N5CCOCC5)c4)n3)cc2)n1 [Compound 9f]
IC50 [3]: > 20 µM | inhibition at 15 min, 10 µM [9]: < 50% | inhibition at 15 min, 10 µM [10]: < 50% | inhibition at 15 min, 10 µM [11]: < 50% | inhibition at 15 min, 10 µM [12]: < 50%

Cc1ncn(-c2ccc(Nc3nccc(-c4cc(C#N)cc(N5CCOCC5)c4)n3)cc2)n1 [Compound 9g]
decrease in potency (shift) for c-jun phosphorylation cell-based assay compared to JNK1 biochemical IC50 [5]: essentially equipotent | selectivity over p38 [13]: greater than 135 fold | IC50 [3]: > 20 µM | increase in potency for JNK1 inhibition compared to 9f ([14]; compared to 9f): approximately 5 fold | increase in potency for JNK3 inhibition compared to 9f ([8]; compared to 9f): approximately 5 fold

Cn1nnc(-c2ccc(Nc3nccc(-c4cc(C#N)cc(N5CCOCC5)c4)n3)cc2)n1 [Compound 9h, 3-(2-(4-(2-methyl-2H-tetrazol-5-yl)phenylamino)pyrimidin-4-yl)-5-morpholinobenzonitrile]
difference in IC50 for c-jun phosphorylation compared to 9g ([5]; compared to 9g): less than 2 fold | IC50 [3]: > 20 µM | difference in IC50 for JNK1 compared to 9g ([14]; compared to 9g): less than 2 fold | inhibition at 15 min, 10 µM [9]: ≤ 15% | inhibition at 15 min, 10 µM [10]: ≤ 15% | inhibition at 15 min, 10 µM [11]: ≤ 15% | inhibition at 15 min, 10 µM [12]: ≤ 15%

c1cncc(-c2ncn(-c3ccc(Nc4nccc(-c5cccc(N6CCOCC6)c5)n4)cc3)n2)c1 [Compound 9i, 4-(3-Morpholinophenyl)-N-(4-(3-(pyridin-3-yl)-1H-1,2,4-triazol-1-yl)phenyl)pyrimidin-2-amine]
IC50 [3]: > 20 µM

N#Cc1cc(-c2ccnc(Nc3ccc(-n4cnc(-c5ccccn5)n4)cc3)n2)cc(N2CCOCC2)c1 [Compound 9j, 3-Morpholino-5-(2-(4-(3-(pyridin-2-yl)-1H-1,2,4-triazol-1-yl)phenylamino)pyrimidin-4-yl)benzonitrile]
IC50 [3]: > 20 µM | inhibition at 15 min, 10 µM [9]: ≤ 33% | inhibition at 15 min, 10 µM [10]: ≤ 33% | inhibition at 15 min, 10 µM [11]: ≤ 33% | inhibition at 15 min, 10 µM [12]: ≤ 33%

CN1CCN(c2ncn(-c3ccc(Nc4nccc(-c5cc(F)cc(N6CCOCC6)c5)n4)cc3)n2)CC1 [Compound 9k]
decrease in potency (shift) for c-jun phosphorylation cell-based assay compared to JNK1 biochemical IC50 [5]: essentially equipotent | IC50 [3]: > 20 µM

Fc1cc(-c2cc[nH]/c(=N/c3ccc(-n4cnc(N5CCOCC5)n4)cc3)n2)cc(N2CCOCC2)c1 [Compound 9l]
inhibition of MLK1-3 [15]: no inhibition | IC50 ([5]; read-out: cell-based IC50, inhibition of c-jun phosphorylation): ~0.05 µM | IC50 [3]: > 20 µM | inhibition at 15 min, 10 µM [9]: 70 to 90% | inhibition at 15 min, 10 µM [10]: 70 to 90% | number of kinases showing > 25% inhibition [16]: 28 | number of kinases showing greater than 70% biochemical inhibition [16]: eleven | inhibition of ASK-1 [17]: no inhibition | inhibition of MKK4 [18]: no inhibition | inhibition of MKK7 [19]: no inhibition | inhibition at 15 min, 10 µM [12]: 70 to 90% | inhibition of MAPK3K1-4 [20]: no inhibition
